Results on two molecules are retold here after paper PMC5377379, “Early neurotrophic pharmacotherapy rescues developmental delay and Alzheimer’s-like memory deficits in the Ts65Dn mouse model of Down syndrome” (Scientific Reports, 2017).

Where a SMILES comes first, the peptide text is derived from it. The star is where a group is joined. X1 = NC(=O)C12CC3CC(CC(N*)(C3)C1)C2 A value given as a limit tells only on which side of the number the result lay.

For data set [1] the following is noted: done at EVER NeuroPharma GmbH, cited from earlier work. The protocol:
The studies regarding the plasma stability and stability in gastric and intestinal juices of P021 were done at EVER NeuroPharma GmbH, Unterach, Austria[67]. Briefly, the compound P021 was found stable both in artificial gastric juice (>90%) and in artificial intestinal juice (>95%) as analyzed up to 30 min and 2 hours, respectively.

For data set [2] the following is noted: cited from earlier work. An excerpt: The compound P021 exerts a neurogenic and neurotrophic effect by inhibiting leukemia inhibitory factor (LIF) signaling pathway and enhancing brain derived neurotrophic factor (BDNF) expression by increasing its transcription.
For data set [3] the following is noted: adult C57Bl/6 mice, commercial service APREDICA; cited from earlier work.
In data set [4] the test system is STAT3 phosphorylation at Tyr705. Nature of the data set: Western blot of pSTAT3 (Tyr705) in hippocampus of 3-week-old offspring (placental/lactational and BBB delivery). In kind it is in vivo, WT and Ts65Dn mice. The following applies: inferred from reduced hippocampal pSTAT3 in 3-week-old offspring; 200 nmoles/g diet to dams E8-PND21. As to the method:
The studies regarding the plasma stability and stability in gastric and intestinal juices of P021 were done at EVER NeuroPharma GmbH, Unterach, Austria[67]. Briefly, the compound P021 was found stable both in artificial gastric juice (>90%) and in artificial intestinal juice (>95%) as analyzed up to 30 min and 2 hours, respectively. […] It is also worth mentioning that young mice may have consumed some P021 diet directly as young mice start consuming solid food by ~PND16.
After completion of behavioral testing, the 3-week-old mice from the neurobehavioral development study and the ~7-month-old mice from the longitudinal study were anesthetized with an overdose of sodium pentobarbital (125 mg/kg) and were transcardially perfused with 0.1 M phosphate buffered saline (PBS). The mouse brains were extracted immediately after perfusion. The left hemisphere of the brain was dissected into hippocampus, cerebral cortex, cerebellum, and brain stem, immediately frozen on dry ice, and then stored at −80 °C till further processing for biochemical analysis.
The hippocampus from left cerebral hemisphere stored at −80 °C from each mouse was homogenized in a Teflon-glass homogenizer to obtain 10% (w/v) homogenate. […] The blots were developed and quantified as described before. For quantification of different protein levels, each immunoreactive band was normalized to its corresponding GAPDH band.
A general note: A western blot detects proteins with antibodies after separation by electrophoresis.

For another data set, the system named is 3xTg-AD mice. To be noted: concluded from hippocampal pSTAT3 decrease after oral P021 in diet; cited from earlier work.
Another data set concerns Ts65Dn mice. Nature of the data set: General examination and monthly body weight, adult mice and mothers. The class given is in vivo. An excerpt: We treated 2–3-month-old pregnant Ts65Dn (Dn) and wild-type (WT) mothers from day 8 (E8) of pregnancy till the weaning of the pups on PND21 with compound P021 (P) in the feed, or as control with vehicle (V) feed (Fig. 1). The offsprings also had access to the P021 or vehicle diet as per mother’s group till PND21. The offsprings from Ts65Dn mothers were genotyped to identify Ts65Dn and WT pups. There were 6 study groups as follows: WT offsprings of WT mothers on vehicle diet (WT-V-WT), WT offsprings of WT mothers on P021 diet (WT-P-WT), WT offsprings of Ts65Dn mothers on vehicle diet (Dn-V-WT), WT offsprings of Ts65Dn mothers on P021 diet (Dn-P-WT), Ts65Dn offsprings of Ts65Dn mothers on vehicle diet (Dn-V-Dn), and Ts65Dn offsprings of Ts65Dn mothers on P021 diet (Dn-P-Dn). In the first phase of the study (Fig. 1b), the newborn pups were evaluated for neurobehavioral development starting on PND1 and carried out until PND21 (or until the appearance of developmental milestone/reflex). After completion of behavioral testing, the 3-week-old mice were sacrificed and brain tissue was collected. The neurobehavioral development component of the study was performed on WT-V-WT (n = 11), WT-P-WT (n = 10), Dn-V-WT (n = 10), Dn-P-WT (n = 9), Dn-V-Dn (n = 11), and Dn-P-Dn (n = 12) mice. In the second phase of the study (Fig. 1c), after prenatal to early postnatal treatment, the offsprings were allowed to grow till 5 months of age, and then general behavioral evaluation and cognitive testing were performed. After weaning, the offsprings received regular mouse chow. After completion of behavioral testing, ~7-month-old animals were sacrificed and brain tissue was collected for biochemical analyses. This longitudinal component of the study was carried out on WT-V-WT (n = 10), WT-P-WT (n = 12), Dn-V-WT (n = 12), Dn-P-WT (n = 11), Dn-V-Dn (n = 13), and Dn-P-Dn (n = 12) mice.
For both the neurobehavioral development in mouse pups and the longitudinal adult mice studies, the physical state and condition of the animals (both mothers and offsprings) were carefully examined throughout the respective study duration. Body weight of mouse pups was recorded daily from PND1 to PND21. Body weight of adult mice was evaluated monthly. Adult mice were not subjected to any behavioral testing till they were ~5 months of age.

The conditions of data set [5]: administration in clinical trials, humans; cited from earlier work. An excerpt: Overall, we observed a significant group effect in body weight [Fig. 7a; 2-way ANOVA, F(5,410) = 14.28, p < 0.0001] and its change with age [F(4,410) = 100.25, p < 0.0001], however, group × age interaction was not significant [F(20,410) = 0.10, p = 1.0]. Bonferroni’s p ...

For `CC(=O)N[C@@H](CC(=O)O)C(=O)NCC(=O)NCC(=O)N[C@@H](CC(C)C)C(=O)NC12CC3CC(C1)CC(C(N)=O)(C3)C2` [Peptide P021] (Ac-DGGL-X1), the “stable in artificial gastric juice” value in data set [1] (analyzed up to 30 min) is on record as above 90%. Also, the “stable in artificial intestinal juice” value in data set [1] (analyzed up to 2 hours) is recorded as above 95%. The water solubility entry in data set [2] is on record as “water-soluble”. For the same molecule, the BBB permeability result in data set [3] is on record as “BBB-permeable”. Moreover, in data set [4], the “placental/lactational delivery to offspring brain” value was “delivered across placental barrier during pregnancy and via breast milk during lactation”. For the same molecule, the oral bioavailability entry with 3xTg-AD mice was “orally bioavailable”. For the same molecule, in the data set with Ts65Dn mice (adult offspring treated E8-PND21), the “general behavioral profile of the adult mice” value is on record as “did not affect the general behavioral profile”. The “body weight, adult Ts65Dn mice” value in the data set on Ts65Dn mice (monthly evaluation, Dn-V-Dn vs. Dn-P-Dn, p > 0.05, treated E8-PND21) is “did not induce any significant changes in body weight”. The “body weight, adult WT mice” value in the data set on Ts65Dn mice (monthly evaluation, WT-V-WT vs. WT-P-WT and Dn-V-WT vs. Dn-P-WT, p > 0.05) is recorded as “did not produce any alterations in body weight”. In the data set with Ts65Dn mice (pregnant mothers on P021 diet, evaluated up to 2-3 months after weaning the pups), the “general physical condition of treated mothers” value is “did not show any treatment-induced alteration in their general physical condition”.

B1: full-length human recombinant CNTF protein: full-length human recombinant ciliary neurotrophic factor protein given in clinical trials (protein, UniProt P26441 1-200, looked up)
chain: MAFTEHSPLTPHRRDLCSRSIWLARKIRSDLTALTESYVKHQGLNKNINLDSADGMPVASTDQWSELTEAERLQENLQAYRTFHVLLARLLEDQQVHFTPTEGDFHQAIHTLLLQVAAFAYQIEELMILLEYKIPRNEADGMPINVGDGGLFEKKLWGLKVLQELSQWTVRSIHDLRFISSHQTGIPARGSHYIANNKKM
modifications: full-length
B1: in data set [5], the “adverse effects in clinical trials” value is “anorexia, skeletal muscle loss, hyperalgesia, severe cramps, and muscle pain”.
